In US20220378706A1, “PHARMACEUTICAL COMPOSITION COMPRISING PDE9 INHIBITOR” (Eisai R&D Management Co., Ltd., priority 2017, published 2022):

Assays:
[1] = system: cGMP in the cerebrospinal fluid; test: CSF cGMP elevation in rats; assay type: in vivo; details: rat, scopolamine
Experimental: cGMP in the cerebrospinal fluid (hereinafter referred to as “CSF cGMP”) elevation in each sample was measured according to the method described in WO2013/051639.

[2] = system: CSF cGMP; test: Multiple ascending dose study: CSF cGMP; assay type: in vivo, human
Experimental: Four sequential cohorts of healthy participants (≥50 years and ≤85 years old) were treated with multiple ascending doses of Compound A up to the maximum tolerated dose (MTD). A total of 6 participants per cohort were randomized to Compound A. Proposed doses of Compound A were:
Compound A was administered orally with 240 milliliter (mL) (8 fluid ounces) of water. […]

[3] = Day 13, 5 mg QD oral, Parts A and D
[4] = Day 13, 10 mg QD oral, Parts A and D
[5] = Day 13, 25 mg QD oral, Parts A and D
[6] = Day 13, 50 mg QD oral, Parts A and D
[7] = Day 13, 100 mg QD oral, Parts A and D
[8] = Day 13, 200 mg QD oral, Parts A and D
[9] = Day 13, 400 mg QD oral Non-Japanese, Parts A and D

With `COc1ncc(C)c(-c2ccc3c(c2)[nH]c(=O)c2cnn([C@H]4CCOC4)c23)c1C` [Compound A, (S)-7-(2-methoxy-3,5-dimethylpyridin-4-yl)-1-(tetrahydrofuran-3-yl)-1H-pyrazolo[4,3-c]quin olin-4(5H)-one] the “% CSF cGMP increase from vehicle control” value ([1]; 3.3 mg/kg oral) was “(90) %”, the “CSF cGMP conc.” value ([1]; 3.3 mg/kg oral) was 3.694 ± 0.65 nM and the “% CSF cGMP increase from vehicle control” value ([1]; 10 mg/kg oral) was “(152) %”. For the same compound, the “CSF cGMP conc.” value ([1]; 10 mg/kg oral) was 4.889 ± 0.538 nM, the “CSF cGMP % Change from Baseline Mean” value [2, 3] was 33.162% and the “CSF cGMP % Change from Baseline Median” value [2, 3] was 29.954%. The “CSF cGMP Change from Baseline Mean” value [2, 3] was 0.491 µg/L, the “CSF cGMP Change from Baseline Median” value [2, 3] was 0.350 µg/L and the “CSF cGMP Mean” value [2, 3] was 1.964 µg/L. The “CSF cGMP Median” value [2, 3] was 1.730 µg/L, the “CSF cGMP % Change from Baseline Mean” value [2, 4] was 94.222% and the “CSF cGMP % Change from Baseline Median” value [2, 4] was 104.348%. The “CSF cGMP Change from Baseline Mean” value [2, 4] was 1.276 µg/L, the “CSF cGMP Change from Baseline Median” value [2, 4] was 1.390 µg/L and the “CSF cGMP Mean” value [2, 4] was 2.704 µg/L. The “CSF cGMP Median” value [2, 4] was 2.620 µg/L, the “CSF cGMP % Change from Baseline Mean” value [2, 5] was 170.369% and the “CSF cGMP % Change from Baseline Median” value [2, 5] was 183.494%. The “CSF cGMP Change from Baseline Mean” value [2, 5] was 2.058 µg/L, the “CSF cGMP Change from Baseline Median” value [2, 5] was 1.979 µg/L and the “CSF cGMP Mean” value [2, 5] was 3.283 µg/L. For the same compound, the “CSF cGMP Median” value [2, 5] was 3.225 µg/L, the “CSF cGMP % Change from Baseline Mean” value [2, 6] was 191.445% and the “CSF cGMP % Change from Baseline Median” value [2, 6] was 189.244%. The “CSF cGMP Change from Baseline Mean” value [2, 6] was 3.750 µg/L, the “CSF cGMP Change from Baseline Median” value [2, 6] was 3.260 µg/L and the “CSF cGMP Mean” value [2, 6] was 5.778 µg/L. The “CSF cGMP Median” value [2, 6] was 4.870 µg/L, the “CSF cGMP % Change from Baseline Mean” value [2, 7] was 260.350% and the “CSF cGMP % Change from Baseline Median” value [2, 7] was 258.784%. For the same compound, the “CSF cGMP Change from Baseline Mean” value [2, 7] was 4.352 µg/L, the “CSF cGMP Change from Baseline Median” value [2, 7] was 3.960 µg/L and the “CSF cGMP Mean” value [2, 7] was 6.066 µg/L. The “CSF cGMP Median” value [2, 7] was 5.420 µg/L, the “CSF cGMP % Change from Baseline Mean” value [2, 8] was 201.165% and the “CSF cGMP % Change from Baseline Median” value [2, 8] was 192.932%. For the same compound, the “CSF cGMP Change from Baseline Mean” value [2, 8] was 3.810 µg/L, the “CSF cGMP Change from Baseline Median” value [2, 8] was 3.755 µg/L and the “CSF cGMP Mean” value [2, 8] was 5.702 µg/L. For the same compound, the “CSF cGMP Median” value [2, 8] was 5.640 µg/L, the “CSF cGMP % Change from Baseline Mean” value [2, 9] was 198.283% and the “CSF cGMP % Change from Baseline Median” value [2, 9] was 191.646%. The “CSF cGMP Change from Baseline Mean” value [2, 9] was 3.302 µg/L, the “CSF cGMP Change from Baseline Median” value [2, 9] was 2.920 µg/L and the “CSF cGMP Mean” value [2, 9] was 4.945 µg/L. The “CSF cGMP Median” value [2, 9] was 4.370 µg/L, the “CSF cGMP % Change from Baseline Mean” value ([2]; Part C, 50 mg, Day 13) was 229.107% and the “CSF cGMP % Change from Baseline Median” value ([2]; Part C, 50 mg, Day 13) was 218.491%. For the same compound, the “CSF cGMP Change from Baseline Mean” value ([2]; Part C, 50 mg, Day 13) was 3.206 µg/L, the “CSF cGMP Change from Baseline Median” value ([2]; Part C, 50 mg, Day 13) was 3.065 µg/L and the “CSF cGMP Mean” value ([2]; Part C, 50 mg, Day 13) was 4.620 µg/L. The “CSF cGMP Median” value ([2]; Part C, 50 mg, Day 13) was 4.265 µg/L, the “CSF cGMP % Change from Baseline Mean” value ([2]; Part C, 50 mg, Day 41) was 222.283% and the “CSF cGMP % Change from Baseline Median” value ([2]; Part C, 50 mg, Day 41) was 182.044%. For the same compound, the “CSF cGMP Change from Baseline Mean” value ([2]; Part C, 50 mg, Day 41) was 3.097 µg/L, the “CSF cGMP Change from Baseline Median” value ([2]; Part C, 50 mg, Day 41) was 2.975 µg/L and the “CSF cGMP Mean” value ([2]; Part C, 50 mg, Day 41) was 4.511 µg/L. For the same compound, the “CSF cGMP Median” value ([2]; Part C, 50 mg, Day 41) was 4.650 µg/L.
